Assay results from PMC10258794, “To Fold or Not to Fold: Diastereomeric Optimization of an α-Helical Antimicrobial Peptide” (Journal of Medicinal Chemistry, 2023).
≈ marks a conversion by molar mass, not a printed value. Where two headings read alike, the source gives them in different places. Positions of bridges follow the written chain, without caps; N, C: chain ends. Non-standard residues stand in square brackets, D forms with d. Residues, ends and D or L forms follow the SMILES beside them. *: point of attachment. Heptanoyl(6-Me) = CC(C)CCCCC(=O)*; dDab = NCC[C@@H](N)C(=O)O; Dab = NCC[C@H](N)C(=O)O

Key:
Burkolderia cenocepacia = experiment: microbe, parasite or virus in culture; settings: for MIC Burkolderia cenocepacia: MDR strain, MH broth pH 7.4, 16–20 h, 37 °C; for MIC B. cenocepacia: supplementary CSV
Experimental: (§1) Antimicrobial activity was determined for all peptides on E. coli W3110, P. aeruginosa PAO1, A. baumannii ATCC19606, K. pneumoniae NCTC418, and methicillin-resistant S. aureus COL and for selected peptides on P. aeruginosa PA14 and the polymyxin B-resistant derivatives PA14 4.13, PA14 4.18, and PA14 2P4 as well as the clinical isolates ZEM-1A and ZEM9A, K. pneumoniae OXA-48, Enterobacter cloacae, Stenotrophomonas maltophilia, B. cenocepacia, and Staphylococus epidermis. To determine the MIC, the broth microdilution method was used.[75] A single bacterial colony was grown in LB medium overnight at 37 °C and 180 rpm shaking. The compounds were prepared as stock solutions of 2 mg/mL in sterilized milliQ deionized water, added to the first well of 96-well sterile, polypropylene round-bottom microtiter plates (TPP, untreated, Corning Incorporated, Kennebunk, USA), and diluted serially by 1/2. […] The bacterial inoculum was prepared by measuring the absorbance of the overnight culture, which was diluted to concentration of the bacteria was quantified by measuring absorbance at 600 nm and diluted to an OD600 of 0.022 in MH medium pH 7.4 (Sigma-Aldrich, Buchs, Switzerland). The sample solutions (150 μL) were mixed with 4 μL of diluted bacterial suspension with a final inoculation of about 5 × 10^5 CFU. For each test, two columns of the plate were kept for sterility control (MH medium only) and growth control (MH medium with bacterial inoculum, no compound). […] The plates were incubated at 37 °C for 16–20 h under static conditions. 15 μL of 3-(4,5-dimethylthiazol-2-yl)-2,5-diphenyltetrazolium bromide (MTT)[76] (1 mg/mL in sterilized milliQ deionized water) was added to each well, and the plates were incubated at room temperature until MTT staining was completed. The MIC was defined as the lowest concentration of the dendrimer that inhibits the visible growth of the tested bacteria (yellow) with the unaided eye.

Enterobacter cloacae = experiment: microbe, parasite or virus in culture; settings: for MIC Enterobacter cloacae: pH 7.4
Experimental: as §1

P. aeruginosa PA14 = experiment: microbe, parasite or virus in culture; settings: for MIC PA14: MH broth pH 7.4, 16–20 h, 37 °C; for MIC P. aeruginosa PA14: supplementary CSV
Experimental: as §1

P. aeruginosa ZEM-1A = experiment: microbe, parasite or virus in culture; settings: for MIC ZEM-1A: pH 7.4
Experimental: as §1

PA14 2P4 (pmrB) = experiment: microbe, parasite or virus in culture; settings: for MIC P. aeruginosaPA14 2P4: supplementary CSV
Experimental: as §1

PA14 4.13 (phoQ) = experiment: microbe, parasite or virus in culture; settings: for MIC P. aeruginosa PA14 4.13: supplementary CSV
Experimental: as §1

PA14 4.18 (pmrB) = experiment: microbe, parasite or virus in culture; settings: for MIC P. aeruginosa PA14 4.18: supplementary CSV
Experimental: as §1

K. pneumoniae Oxa-48 = experiment: MIC broth microdilution, K. pneumoniae Oxa-48; assay type: cell-based, Klebsiella pneumoniae; settings: for MIC K. pneumoniae Oxa-48: MDR strain, MH broth pH 7.4, 16–20 h, 37 °C
Experimental: as §1

[1] = tested on: Stenotrophomonas maltophilia; experiment: microbe, parasite or virus in culture; assay type: cell-based; settings: for MIC Stenotrophomonas maltophilia: pH 7.4
Experimental: as §1

Staphylococcus epidermis = experiment: MIC broth microdilution, Staphylococcus epidermis; assay type: cell-based; settings: pH 7.4
Experimental: as §1

HEK293 cells = experiment: Alamar blue cytotoxicity, HEK293; assay type: cell-based, human; settings: 24 h, mean ± SD, n = 3, read-out: Toxicity on HEK293 cells
Experimental: (§2) The A549 human lung adenocarcinoma cells are derived from a patient and were kindly given to us by Dr. Georgia Konstatinidou (Pharmacology Institute, Bern University). HEK293T cells were obtained from ATCC (CRL-11268). A549 and HEK293 were cultured in an incubator at 37 °C with 5% CO2 in RPMI-1640 (Gibco) and DMEM (Gibco) containing 10% fetal bovine serum (Thermo Fisher), 100 I.U./mL penicillin, and 100 μg/mL streptomycin (Gibco).
(§3) The viability of the cells was assessed with an AlamarBlue assay (ThermoFisher). Cells were seeded into 96-well plates, 4000 cells/well (HEK293) and 8000 cells/well (A549), the day before the experiment. Cells were then treated with the increasing concentration of the compound and incubated for 24 h at 37 °C in the presence of 5% CO2. The next day, the medium was removed and replaced by a 10% AlamarBlue solution in full growth medium (DMEM or RPMI-1640). The cells were incubated for 3–5 h at 37 °C with 5% CO2 in a humidified atmosphere. The fluorescence was then measured on a Tecan Infinite M1000 Pro plate reader at λex 560 nm and λem 590 nm. The value was normalized according to the untreated cells.

A549 cells = experiment: Alamar blue cytotoxicity, A549; assay type: cell-based, human; settings: 24 h, mean ± SD, n = 3, read-out: Toxicity on A549 lung cancern cells
Experimental: as §2, §3

A. baumannii ATCC19606 = tested on: A. baumannii ATCC19606
Experimental: as §1

E. coli W3110 = settings: MH broth pH 7.4, 16–20 h, 37 °C
Experimental: as §1

K. pneumoniae NCTC418 = tested on: K. pneumoniae NCTC418
Experimental: as §1

P. aeruginosa PAO1 = tested on: P. aeruginosa PAO1
Experimental: as §1

S. aureus COL MRSA = settings: for MIC S. aureus COL MRSA: MH broth pH 7.4, 16–20 h, 37 °C; for MIC S. aureus COL: supplementary CSV, ranges of Table 1 given as one number
Experimental: as §1

S. aureus Newman = settings: for MIC S. aureus Newman: MH broth pH 7.4, 16–20 h, 37 °C; for MIC S. aureus Newmann: supplementary CSV
P. aeruginosa ZEM9A = experiment: microbe, parasite or virus in culture; assay type: cell-based, Pseudomonas aeruginosa
Experimental: as §1

[2] = MH broth pH 7.4, 16–20 h, 37 °C
[3] = supplementary CSV, ranges of Table 1 given as one number

| SMILES | MIC Burkolderia cenocepacia (Burkolderia cenocepacia) [µg/mL] | MIC B. cenocepacia (Burkolderia cenocepacia) [µg/mL] | MIC Enterobacter cloacae (Enterobacter cloacae) [µg/mL] | MIC PA14 (P. aeruginosa PA14) [µg/mL] | MIC P. aeruginosa PA14 (P. aeruginosa PA14) [µg/mL] | MIC ZEM-1A (P. aeruginosa ZEM-1A) [µg/mL] | MIC P. aeruginosaPA14 2P4 (PA14 2P4 (pmrB)) [µg/mL] | MIC P. aeruginosa PA14 4.13 (PA14 4.13 (phoQ)) [µg/mL] | MIC P. aeruginosa PA14 4.18 (PA14 4.18 (pmrB)) [µg/mL] | MIC K. pneumoniae Oxa-48 (K. pneumoniae Oxa-48) [µg/mL] | MIC Stenotrophomonas maltophilia [1] [µg/mL] | MIC Staphylococcus epidermis (Staphylococcus epidermis) [µg/mL] | IC50 (HEK293 cells) [µM] | IC50 (A549 cells) [µM] | MIC A. baumannii ATCC19606 (A. baumannii ATCC19606; [2]) [µg/mL] | MIC A. baumannii ATCC19606 (A. baumannii ATCC19606; [3]) [µg/mL] | MIC E. coli W3110 (E. coli W3110) [µg/mL] | MIC K. pneumoniae NCTC418 (K. pneumoniae NCTC418; [2]) [µg/mL] | MIC K. pneumoniae NCTC418 (K. pneumoniae NCTC418; [3]) [µg/mL] | MIC P. aeruginosa PAO1 (P. aeruginosa PAO1; [2]) [µg/mL] | other results |
| --- | --- | --- | --- | --- | --- | --- | --- | --- | --- | --- | --- | --- | --- | --- | --- | --- | --- | --- | --- | --- | --- |
| CC(C)C[C@H](NC(=O)[C@H](CC(C)C)NC(=O)[C@H](CC(C)C)NC(=O)[C@H](CCCCN)NC(=O)[C@H](CC(C)C)NC(=O)[C@H](CC(C)C)NC(=O)[C@@H](CCCCN)NC(=O)[C@H](CC(C)C)NC(=O)[C@H](CC(C)C)NC(=O)[C@@H](CCCCN)NC(=O)[C@@H](N)CCCCN)C(N)=O [HP3, KkLLkLLKLLL] | >64 | > 64 | 4 (≈ 3.03 µM) | 4 (≈ 3.03 µM) | 4 (≈ 3.03 µM) | 2 (≈ 1.51 µM) | 32 (≈ 24.2 µM) | 8 (≈ 6.05 µM) | 32 (≈ 24.2 µM) | 4 (≈ 3.03 µM) | 4 (≈ 3.03 µM) | 4 (≈ 3.03 µM) | 69 ± 2.6 | 5.4 ± 4.4 | 2 (≈ 1.51 µM) | 2 (≈ 1.51 µM) | 2 (≈ 1.51 µM) | 8 (≈ 6.05 µM) | 8 (≈ 6.05 µM) | 4 (≈ 3.03 µM) | MIC P. aeruginosa PAO1 (P. aeruginosa PAO1; [3]): 4 µg/mL (≈ 3.03 µM); MIC S. aureus COL MRSA (S. aureus COL MRSA): 2 to 4 µg/mL; MIC S. aureus COL (S. aureus COL MRSA): 3 µg/mL (≈ 2.27 µM); MIC S. aureus Newman (S. aureus Newman): 2 µg/mL (≈ 1.51 µM); MIC S. aureus Newmann (S. aureus Newman): 2 µg/mL (≈ 1.51 µM) |
| CC(C)C[C@H](NC(=O)[C@H](CC(C)C)NC(=O)[C@H](CC(C)C)NC(=O)[C@H](CCCCN)NC(=O)[C@H](CC(C)C)NC(=O)[C@H](CC(C)C)NC(=O)[C@H](CCCCN)NC(=O)[C@H](CC(C)C)NC(=O)[C@H](CC(C)C)NC(=O)[C@H](CCCCN)NC(=O)[C@@H](N)CCCCN)C(N)=O [ln65] | >64 | > 64 | 2 (≈ 1.51 µM) | 2 to 4 | 3 (≈ 2.27 µM) | 4 (≈ 3.03 µM) | 32 (≈ 24.2 µM) | 4 (≈ 3.03 µM) | 32 (≈ 24.2 µM) | 2 (≈ 1.51 µM) | 2 (≈ 1.51 µM) | 2 (≈ 1.51 µM) | 27 ± 5.4 | 20 ± 0.9 | 2 to 4 | 3 (≈ 2.27 µM) | 4 (≈ 3.03 µM) | 4 (≈ 3.03 µM) | 4 (≈ 3.03 µM) | 2 to 4 | MIC ZEM9A (P. aeruginosa ZEM9A; pH 7.4): 4 µg/mL (≈ 3.03 µM); MIC P. aeruginosa PAO1 (P. aeruginosa PAO1; [3]): 3 µg/mL (≈ 2.27 µM); MIC S. aureus COL MRSA (S. aureus COL MRSA): 4 µg/mL (≈ 3.03 µM); MIC S. aureus COL (S. aureus COL MRSA): 4 µg/mL (≈ 3.03 µM); MIC S. aureus Newman (S. aureus Newman): 2 µg/mL (≈ 1.51 µM); MIC S. aureus Newmann (S. aureus Newman): 2 µg/mL (≈ 1.51 µM) |
| CC(C)CCCCC(=O)N[C@@H](CCN)C(=O)N[C@H](C(=O)N[C@@H](CCN)C(=O)N[C@H]1CCNC(=O)[C@H]([C@@H](C)O)NC(=O)[C@H](CCN)NC(=O)[C@H](CCN)NC(=O)[C@H](CC(C)C)NC(=O)[C@@H](Cc2ccccc2)NC(=O)[C@@H](CCN)NC1=O)[C@@H](C)O [Pol B, polymyxin B, reference compound] ({Heptanoyl(6-Me)}-[Dab]T[Dab][Dab][dDab][dF]L[Dab][Dab]T; lactam 4-C) | – | – | – | – | – | – | – | – | – | – | – | – | – | – | – | – | – | – | – | – | MIC (Burkolderia cenocepacia; Burkholderia cenocepacia, pH 7.4, read-out: MIC Burkolderia cenocepacia): > 16 µg/mL; MIC (Enterobacter cloacae; Enterobacter cloacae, pH 7.4, read-out: MIC Enterobacter cloacae): 1 µg/mL (≈ 0.841 µM); MIC (P. aeruginosa PA14; Pseudomonas aeruginosa, PA14, pH 7.4, read-out: MIC PA14): < 0.125 µg/mL; MIC (P. aeruginosa ZEM-1A; Pseudomonas aeruginosa, ZEM1A, pH 7.4, read-out: MIC ZEM-1A): < 0.125 µg/mL; MIC (PA14 2P4 (pmrB); Pseudomonas aeruginosa, PA14, pH 7.4, read-out: MIC PA14 2P4 (pmrB)): 1 µg/mL (≈ 0.841 µM); MIC (PA14 4.13 (phoQ); Pseudomonas aeruginosa, PA14, pH 7.4, read-out: MIC PA14 4.13 (phoQ)): 0.25 µg/mL (≈ 0.21 µM); MIC (PA14 4.18 (pmrB); Pseudomonas aeruginosa, PA14, pH 7.4, read-out: MIC PA14 4.18 (pmrB)): 1 µg/mL (≈ 0.841 µM); MIC (P. aeruginosa ZEM9A; Pseudomonas aeruginosa, ZEM9A, MDR strain, MH broth pH 7.4, 16–20 h, 37 °C): 2 µg/mL (≈ 1.68 µM); MIC (K. pneumoniae Oxa-48; Klebsiella pneumoniae, OXA48, pH 7.4, read-out: MIC K. pneumoniae Oxa-48): 2 µg/mL (≈ 1.68 µM); MIC ([1]; Stenotrophomonas maltophilia, MDR strain, MH broth pH 7.4, 16–20 h, 37 °C): 0.5 µg/mL (≈ 0.42 µM) |
